Results taken from US20150105252A1, “SUBSTITUTED PYRAZOLES AS HERBICIDES” (E I DU PONT DE NEMOURS AND COMPANY, priority 2013, published 2015).

Key:
[1] = system: field violet; assay: Test D postemergence; assay type: in vivo, Viola arvensis; settings: scale 0 to 100
Summary of the method: (§1)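 Preemergence: seeds sown in silt loam and sprayed with compounds in a non-phytotoxic solvent with surfactant; postemergence: plants at 2 to 18 cm (1- to 4-leaf stage) in peat-based medium treated likewise. After 14 to 21 days in controlled growth conditions, injury rated visually versus controls on 0 (no effect) to 100 (complete control) scale.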

[2] = system: oat, wild; assay: Test D preemergence; assay type: in vivo, Avena fatua; settings: Preemergence, scale 0 to 100
Summary of the method: as §1

[3] = system: chamomile; assay: Test D postemergence; assay type: in vivo, Matricaria inodora; settings: scale 0 to 100
Summary of the method: as §1

[4] = system: bluegrass; assay: Test D preemergence; assay type: in vivo, Poa annua; settings: Preemergence, scale 0 to 100
Summary of the method: as §1

[5] = system: oat, wild; assay: Test D postemergence; assay type: in vivo, Avena fatua; settings: scale 0 to 100
Summary of the method: as §1

[6] = system: radish, wild; assay: Test D postemergence; assay type: in vivo, Raphanus raphanistrum; settings: scale 0 to 100
Summary of the method: as §1

[7] = system: windgrass; assay: Test D postemergence; assay type: in vivo, Apera spica-venti; settings: scale 0 to 100
Summary of the method: as §1

[8] = system: blackgrass; assay: Test D postemergence; assay type: in vivo, Alopecurus myosuroides; settings: scale 0 to 100
Summary of the method: as §1

[9] = system: barley, winter; assay: Test D postemergence; assay type: in vivo, Hordeum vulgare; settings: scale 0 to 100
Summary of the method: as §1

[10] = system: barley, spring; assay: Test D postemergence; assay type: in vivo, Hordeum vulgare; settings: scale 0 to 100
Summary of the method: as §1

[11] = system: chamomile; assay: Test D preemergence; assay type: in vivo, Matricaria inodora; settings: Preemergence, scale 0 to 100
Summary of the method: as §1

[12] = system: lambsquarters; assay: Test D preemergence; assay type: in vivo, Chenopodium album; settings: Preemergence, scale 0 to 100
Summary of the method: as §1

[13] = system: speedwell; assay: Test D postemergence; assay type: in vivo, Veronica persica; settings: scale 0 to 100
Summary of the method: as §1

[14] = system: canarygrass; assay: Test D preemergence; assay type: in vivo, Phalaris minor; settings: Preemergence, scale 0 to 100
Summary of the method: as §1

[15] = system: canarygrass; assay: Test D postemergence; assay type: in vivo, Phalaris minor; settings: scale 0 to 100
Summary of the method: as §1

[16] = system: mustard, wild; assay: Test D postemergence; assay type: in vivo, Sinapis arvensis; settings: scale 0 to 100
Summary of the method: as §1

[17] = system: wheat, spring; assay: Test D preemergence; assay type: in vivo, Triticum aestivum; settings: Preemergence, scale 0 to 100
Summary of the method: as §1

[18] = system: wheat, winter; assay: Test D preemergence; assay type: in vivo, Triticum aestivum; settings: Preemergence, scale 0 to 100
Summary of the method: as §1

[19] = system: speedwell; assay: Test D preemergence; assay type: in vivo, Veronica persica; settings: Preemergence, scale 0 to 100
Summary of the method: as §1

[20] = system: oilseed rape; assay: Test D preemergence; assay type: in vivo, Brassica napus; settings: Preemergence, scale 0 to 100
Summary of the method: as §1

CCCc1cc(C(=O)NC(C)C)nn1Cc1cc(C(F)(F)F)nn1C [Compound 201]
100: Plant response rating, Oat, Wild ([2]; 125 g ai/ha) | Plant response rating, Oat, Wild ([2]; 250 g ai/ha) | Plant response rating, Chamomile ([11]; 62 g ai/ha) | Plant response rating, Chamomile ([11]; 125 g ai/ha) | Plant response rating, Chamomile ([11]; 250 g ai/ha) | Plant response rating, Lambsquarters ([12]; 125 g ai/ha) | Plant response rating, Lambsquarters ([12]; 250 g ai/ha) | Speedwell plant response rating ([13]; Postemergence, 250 g ai/ha) | Plant response rating, Canarygrass ([14]; 62 g ai/ha) | Plant response rating, Canarygrass ([14]; 125 g ai/ha) | Plant response rating, Canarygrass ([14]; 250 g ai/ha) | Plant response rating, Wheat, Spring ([17]; 250 g ai/ha) | Plant response rating, Speedwell ([19]; 62 g ai/ha) | Plant response rating, Speedwell ([19]; 125 g ai/ha) | Plant response rating, Speedwell ([19]; 250 g ai/ha) | Plant response rating, Oilseed Rape ([20]; 62 g ai/ha) | Plant response rating, Oilseed Rape ([20]; 125 g ai/ha) | Plant response rating, Oilseed Rape ([20]; 250 g ai/ha)
35: Chamomile plant response rating ([3]; Postemergence, 31 g ai/ha) | Chamomile plant response rating ([3]; postemergence, 62 g ai/ha) | Barley, Winter plant response rating ([9]; Postemergence, 250 g ai/ha)
55: Field Violet plant response rating ([1]; Postemergence, 31 g ai/ha) | Field Violet plant response rating ([1]; postemergence, 62 g ai/ha) | Chamomile plant response rating ([3]; Postemergence, 125 g ai/ha) | Plant response rating, Wheat, Spring ([17]; 62 g ai/ha)
95: Plant response rating, Bluegrass ([4]; 250 g ai/ha) | Plant response rating, Wheat, Winter ([18]; 250 g ai/ha)
90: Plant response rating, Lambsquarters ([12]; 62 g ai/ha) | Mustard, Wild plant response rating ([16]; Postemergence, 250 g ai/ha)
15: Canarygrass plant response rating ([15]; Postemergence, 31 g ai/ha) | Canarygrass plant response rating ([15]; postemergence, 62 g ai/ha)
70: Oat, Wild plant response rating ([5]; Postemergence, 250 g ai/ha) | Speedwell plant response rating ([13]; Postemergence, 31 g ai/ha) | Speedwell plant response rating ([13]; Postemergence, 125 g ai/ha) | Speedwell plant response rating ([13]; postemergence, 62 g ai/ha) | Plant response rating, Wheat, Winter ([18]; 125 g ai/ha)
75: Field Violet plant response rating ([1]; Postemergence, 250 g ai/ha) | Mustard, Wild plant response rating ([16]; Postemergence, 31 g ai/ha) | Mustard, Wild plant response rating ([16]; postemergence, 62 g ai/ha) | Plant response rating, Wheat, Spring ([17]; 125 g ai/ha)
40: Barley, Spring plant response rating ([10]; Postemergence, 250 g ai/ha) | Plant response rating, Wheat, Winter ([18]; 62 g ai/ha)
85: Mustard, Wild plant response rating ([16]; Postemergence, 125 g ai/ha)
45: Windgrass plant response rating ([7]; Postemergence, 250 g ai/ha)
80: Plant response rating, Bluegrass ([4]; 125 g ai/ha)
50: Plant response rating, Bluegrass ([4]; 62 g ai/ha) | Oat, Wild plant response rating ([5]; Postemergence, 125 g ai/ha) | Blackgrass plant response rating ([8]; Postemergence, 125 g ai/ha) | Plant response rating, Chamomile ([11]; 31 g ai/ha)
30: Windgrass plant response rating ([7]; Postemergence, 125 g ai/ha)
60: Plant response rating, Oat, Wild ([2]; 62 g ai/ha) | Plant response rating, Canarygrass ([14]; 31 g ai/ha) | Canarygrass plant response rating ([15]; Postemergence, 250 g ai/ha)
20: Plant response rating, Bluegrass ([4]; 31 g ai/ha) | Windgrass plant response rating ([7]; Postemergence, 31 g ai/ha) | Windgrass plant response rating ([7]; postemergence, 62 g ai/ha) | Barley, Winter plant response rating ([9]; Postemergence, 31 g ai/ha) | Barley, Winter plant response rating ([9]; postemergence, 62 g ai/ha) | Canarygrass plant response rating ([15]; Postemergence, 125 g ai/ha)
65: Field Violet plant response rating ([1]; Postemergence, 125 g ai/ha) | Chamomile plant response rating ([3]; Postemergence, 250 g ai/ha) | Radish, Wild plant response rating ([6]; Postemergence, 31 g ai/ha) | Radish, Wild plant response rating ([6]; Postemergence, 125 g ai/ha) | Radish, Wild plant response rating ([6]; Postemergence, 250 g ai/ha) | Radish, Wild plant response rating ([6]; postemergence, 62 g ai/ha) | Blackgrass plant response rating ([8]; Postemergence, 250 g ai/ha)
25: Oat, Wild plant response rating ([5]; Postemergence, 31 g ai/ha) | Oat, Wild plant response rating ([5]; postemergence, 62 g ai/ha) | Blackgrass plant response rating ([8]; Postemergence, 31 g ai/ha) | Blackgrass plant response rating ([8]; postemergence, 62 g ai/ha) | Barley, Winter plant response rating ([9]; Postemergence, 125 g ai/ha) | Barley, Spring plant response rating ([10]; Postemergence, 31 g ai/ha) | Barley, Spring plant response rating ([10]; Postemergence, 125 g ai/ha) | Barley, Spring plant response rating ([10]; postemergence, 62 g ai/ha)
